Data: patent US20250162990A1, “COMPOUNDS AND METHODS FOR INHIBITING CANCERS OVER-EXPRESSING REPLICATION FACTOR C 40” (RAADYSAN BIOTECH, INC., priority 2022, published 2025)

Key:
[1] = system: MCF10A cells (non-cancerous breast epithelial cells); assay: Cell viability, ApoLive Glo Multiplex Assay (live-cell protease fluorescence); assay type: cell-based; details: 24 hours; for effect on the cell viability of MCF10A cells: 0.1 nM to 100 μM; for effect on the cell viability of MCF10A cells at lower drug concentrations: concentrations of up to 10 μM
Description: (§1) Non-cancerous breast epithelial cells (MCF10A) and TNBC cell line (MDA-MB-231; mesenchymal; originating from a person) were purchased from the ATCC (American Type Culture Collection, Manassas, Virginia). The effect of the 7 SMEs on cell viability and apoptosis, in MDA-MB-231 and MCF10A cell lines, respectively, was determined as follows. The MCF10A and MDA-MB-231 cells were incubated with different concentrations (100 μM, 10 μM, 1 μM, 0.1 μM, 10 nM, 1 nM, 0.1 nM, and DMSO only) of the 7 SMEs for 24 hours at 37° C. Cell viability and apoptosis was estimated using the ApoLive Glo Multiplex Assay kit 29 (Promega, Madison, WI). Live-cell protease fluorescence (cell viability) was measured at 400 Ex/505 Em and caspase3/7 activation (apoptosis) was measured by luminescence on Envision plate reader.

[2] = system: MDA-MB-231 cells (TNBC cell line); assay: as above; assay type: cell-based; details: for EC50: Homo sapiens, MDA-MB-231, 24 hours at 37° C., read-out: EC50, inhibition of TNBC cell viability; for inhibited TNBC cell viability: MDA-MB-231, 24 hours, dose-dependent (up to 100 μM)
Description: as §1

MDA-MB-231 cells = assay: Apoptosis, caspase3/7 activation, ApoLive Glo Multiplex Assay; assay type: cell-based; details: 24 hr, caspase3/7 luminescence
Description: as §1

[3] = target: T1, Recombinant human RFC40 protein (Homo sapiens, UniProt P35250); assay: RFC40 ATPase enzyme activity, ADP-Glo Max Assay; assay type: biochemical; details: RFC40 250 nM, ATP 25 μM; for inhibition at 0.0001 µM: 0.1 nM compound, after 90 min pre-incubation, read-out: time-dependent increase in the inhibition of the RFC40 enzyme activity; for inhibition of RFC40 enzyme activity after 30 min of incubation: 30 min pre-incubation at 37° C.
T1 construct: purchased Origene Technologies (Rockville, MD)
T1 sequence (P35250 whole entry): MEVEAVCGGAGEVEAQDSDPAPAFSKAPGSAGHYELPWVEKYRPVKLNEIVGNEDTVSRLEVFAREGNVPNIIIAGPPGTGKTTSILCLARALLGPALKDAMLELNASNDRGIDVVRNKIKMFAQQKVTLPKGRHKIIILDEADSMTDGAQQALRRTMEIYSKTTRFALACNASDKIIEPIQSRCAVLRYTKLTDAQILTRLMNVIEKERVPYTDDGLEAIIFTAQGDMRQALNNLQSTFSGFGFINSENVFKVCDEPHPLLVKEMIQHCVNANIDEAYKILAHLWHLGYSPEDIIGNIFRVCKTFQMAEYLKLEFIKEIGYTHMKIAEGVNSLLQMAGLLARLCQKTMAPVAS
Description: FIGS. 15A-B are graphs of RFC40 ATPase activity inhibition. Human recombinant RFC40 (250 nM) was pre-incubated, individually, with different concentrations of compounds labeled RDY00209 and RDY00120 at 37° C. ATP (25 μM) was then added to the mixture and the ATPase enzyme activity of RFC40 was estimated using the ADP-Glo Max Assay. FIG. 15A presents RFC40 enzyme activity after a 30 min incubation with each compound, and FIG. 15B presents RFC40 enzyme activity after a 90 min incubation with each compound.
Method: Biochemical assays were performed to determine the effects of the 2 SMEs RDY00209 and RDY00120 on the enzymatic activity of RFC40. Recombinant human RFC40 protein was purchased from Origene Technologies (Rockville, MD). ATPase enzyme activity of RFC40 was estimated using the ADP-Glo Max Assay kit^32 (Promega, Madison, WI), as per the manufacturer's instructions. RFC40 (250 nM) was pre-incubated, individually, with different concentrations (100 μM, 0.1 μM, 0.1 nM and 0) of RDY00209 and RDY00120 for 30 min and 90 min, respectively, at 37° C. ATP (25 μM) was then added to the mixture and incubated for another 3 hours at 37° C. Luminescence was read on an Envision plate reader.

RFC40 in HEK293 cells = target: T2, RFC40 in HEK293 cells (Homo sapiens, UniProt P35250); assay: RFC40 protein expression by Western blot; assay type: cell-based; details: 2 different concentrations, 24 hr
T2 construct: endogenous in cells; host or cells: HEK293
T2 sequence (P35250 whole entry): as above
Description: HEK293 cells were plated in 6-well plates and grown until they were 80% confluent. The cells were then treated with RDY00012, in a dose-dependent manner [100 μM, 10 μM, 1 μM, 0.1 μM, 0 μM (DMSO only)], for 24 hours at 37° C. Samples were run 9% SDS-PAGE and Western blot analysis was performed using rabbit polyclonal anti-RFC40 (1:100, Abcepta) and mouse monoclonal anti-β-Actin (1:500, Santa Cruz Tech) primary antibodies, respectively. Following incubation with anti-rabbit, and anti-mouse secondary antibodies, respectively, specific proteins were detected by chemiluminescence.

| SMILES | effect on the cell viability of MCF10A cells [1] | EC50 [2] | inhibited TNBC cell viability [2] | induction of apoptosis in MDA-MB-231 cells (MDA-MB-231 cells) | inhibition at 0.0001 µM [3] | inhibition of RFC40 enzyme activity after 30 min of incubation [3] | effect on the cell viability of MCF10A cells at lower drug concentrations [1] | expression of RFC40 (RFC40 in HEK293 cells) |
| --- | --- | --- | --- | --- | --- | --- | --- | --- |
| O=C(O)CNC(=O)CCn1ccc2ccc(Cl)cc21 [RDY00209] | no effect | 6.92 µM | 95% | did not induce apoptosis | 22.1% | inhibited the enzyme activity in a dose-dependent manner |  |  |
| O=C(O)c1csc(S(=O)(=O)Nc2cccc3c2CCCC3)c1 [RDY00120] | no effect | 7.14 µM | 95% | did not induce apoptosis | 36.5% | inhibited the enzyme activity in a dose-dependent manner |  |  |
| O=C(O)c1ccc(OCc2ccc3nsnc3c2)cc1 [RDY00012] |  | 7.81 µM | 95% | did not induce apoptosis |  |  | did not affect | downregulated the expression of RFC40 |
| COc1cccc(-c2ccc(=O)n(CCCC(=O)Nc3nnc(C)s3)n2)c1 [RDY00034] |  | 5.42 µM | 95% | did not induce apoptosis |  |  | did not affect |  |
